For assay [1], the target named is T1, MC1R (Mus musculus, UniProt Q01727).
T1 construct: endogenous in cells; host or cells: murine melanoma B16F1 cells
Description: Competitive binding assay with [125I]-NDP-α-MSH in B16F1 melanoma cells. The settings on record: [125I]-[Nle4,DPhe7]-α-MSH radioligand, murine melanoma B16F1 cells, in triplicate, GraphPad Prism fit, read-out: MC1R binding affinity (IC50). The protocol:
The binding affinities of the peptides CycN-K6 and CycN-K7 to MC1R were tested in a competitive binding assay using [^125I]-[Nle^4,DPhe^7]-α-MSH ([^125I]-NDP-α-MSH) as radioligand and murine melanoma B16F1 cells (Figure S1, Supplementary Materials), as previously described for other α-MSH analogues. Table 1 lists the IC50 values obtained for those two peptides, and for the 19-membered macrocyclic peptides PG10N and CycS-C6 [19, 20]. […] Therefore, a detailed structural comparison of these three peptides is required to understand the molecular basis for their binding to receptor MC1R.
NDP-α-MSH was radioiodinated as described. To determine the inhibitory concentration of 50 % (IC50) values for the α-MSH analogues, competitive binding assays with [^125I]NDP-α-MSH in B16F1 melanoma cells were carried out in triplicate following the previously described procedure. IC50 values were calculated from the plots of the percentage of [^125I]NDP-α-MSH bound to the cells vs. the concentrations of displacing peptides by using GraphPad Prism software (GraphPad Software Inc., La Jolla, CA, USA).

Another assay relates to all human MCRs. The settings on record: ref [19]; cited from earlier work. The text has this:
Aimed at enhancing the biological stability, potency and specificity of the endogenous ligand, a library of α-MSH analogues has been designed for imaging and therapeutic applications. […] However, replacement of the alkylthioaryl-bridge (Cy ...

Assay [2] relates to MC1R. Conditions: 19-membered parent peptide; ref [19]; read-out: MC1R binding affinity (IC50); cited from earlier work. From the text: Table 1 Sequences, cycle size and MC1R binding affinities (IC50) of cyclic α-MSH analogues. | column: IC50 (nM)
Assay [3] addresses T1, MC1R. The settings on record: ref [20], cited from earlier work. The text has this: Table 1 Sequences, cycle size and MC1R binding affinities (IC50) of cyclic α-MSH analogues. | column: IC50 (nM) || Linear and cyclic analogues of the α-melanocyte stimulating hormone (α-MSH) targeting the human melanocortin receptor 1 (MC1R) are of pharmacological interest for detecting and treating melanoma. The central sequence of α-MSH (His-Phe-Arg-Trp) has been identified as being essential for receptor binding. To deepen current knowledge on the molecular basis for α-MSH bioactivity, we aimed to understand the effect of cycle size on receptor binding. To that end, we synthesised two macrocyclic isomeric α-MSH analogues, c[NH-NO2-C6H3-CO-His-DPhe-Arg-Trp-Lys]-Lys-NH2 (CycN-K6) and c[NH-NO2-C6H3-CO-His- ... || Aimed at enhancing the biological stability, potency and specificity of the endogenous ligand, a library of α-MSH analogues has been designed for imaging and therapeutic applications. […] However, replacement of the alkylthioaryl-bridge (Cy ... || (+ 1 further places)

The text below walks through data of paper PMC6152105, “NMR Insights into the Structure-Function Relationships in the Binding of Melanocortin Analogues to the MC1R Receptor” (Molecules : A Journal of Synthetic Chemistry and Natural …, 2017).

Entries after “also recorded” stand apart in the source; their conditions may differ. Read-outs that look alike come from different tables or passages of the source. Numbered stars: 1 amine (or outer) side, 2 acyl side, 3 side chain; on linkers, the order of the positions; unused ones are H or OH. Bridge positions count the residues as written; N and C are the ends. Square brackets hold non-standard residues; d marks the D form. Peptide text beside a SMILES is read from it. nitrobenzoyl (NO2-C6H3-CO) = nitrobenzoyl unit acylating the N-terminal His, with its aryl carbon thioether-bonded to the Cys side-chain S; X1 = O=C(c1cc([N+](=O)[O-])ccc1[*:2])[*:1]

T1 sequence (Q01727 whole entry): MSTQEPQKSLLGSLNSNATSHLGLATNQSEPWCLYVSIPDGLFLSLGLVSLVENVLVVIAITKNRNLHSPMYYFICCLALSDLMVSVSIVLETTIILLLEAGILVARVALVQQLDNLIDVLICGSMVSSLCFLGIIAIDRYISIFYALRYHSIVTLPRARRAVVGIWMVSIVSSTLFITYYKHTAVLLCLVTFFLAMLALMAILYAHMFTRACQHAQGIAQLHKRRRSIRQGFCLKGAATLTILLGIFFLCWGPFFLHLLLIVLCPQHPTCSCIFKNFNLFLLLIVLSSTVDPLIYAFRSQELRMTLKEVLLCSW

With `N=C(N)NCCC[C@@H]1NC(=O)[C@@H](Cc2ccccc2)NC(=O)[C@H](Cc2c[nH]cn2)NC(=O)c2cc([N+](=O)[O-])ccc2NCCCC[C@@H](C(=O)N[C@@H](CCCCN)C(N)=O)NC(=O)[C@H](Cc2c[nH]c3ccccc23)NC1=O` [CycN-K6, c[NH–NO2–C6H3–CO–His–DPhe–Arg–Trp–Lys]–Lys–NH2] (H[dF]RWKK-NH2; linker N-5 via X1), the IC50 at MC1R [1] came to 155 ± 16 nM.

In the case of `N=C(N)NCCC[C@@H]1NC(=O)[C@@H](Cc2ccccc2)NC(=O)[C@H](Cc2c[nH]cn2)NC(=O)c2cc([N+](=O)[O-])ccc2NCCCC[C@@H](C(N)=O)NC(=O)[C@H](CCCCN)NC(=O)[C@H](Cc2c[nH]c3ccccc23)NC1=O` [CycN-K7, c[NH–NO2–C6H3–CO–His–DPhe–Arg–Trp–Lys–Lys]–NH2] (H[dF]RWKK-NH2; linker N-6 via X1), the IC50 on MC1R [1] turned out to be 495 ± 101 nM.

For the molecule “c[S–NO2–C6H3–CO–His–DPhe–Arg–Trp–Cys]–NH2 (sidechain bridge or staple) [PG10N, 19-membered alkylthioaryl-bridged macrocyclic α-MSH analogue]”, in the assay with all human MCRs, the agonist activity result is given as “potent full agonist for all human MCRs”. In addition, the IC50 in the assay with MC1R [2] was 3.7 ± 0.5 nM.

As to “c[S–NO2–C6H3–CO–His–DPhe–Arg–Trp–Cys]–Lys–NH2 (sidechain bridge or staple) ({nitrobenzoyl (NO2-C6H3-CO)}-H[dF]RWCK-NH2; thioether N-5) [CycS-C6, 19-membered cyclic analogue, previously reported by the authors]”, the IC50 with MC1R [3] (previously reported by the authors, competitive binding, [125I]-NDP-α-MSH, B16F1 cells, read-out: MC1R binding affinity (IC50)) was 1770 ± 480 nM.

Turning to “c[S–NO2–C6H3–CO–His–DPhe–Arg–Trp–Cys]–Lys–NH2 (sidechain bridge or staple) [CycS-C6, 19-membered cyclic analogue, previously reported by the authors]”, the “MC1R binding in words” value on MC1R [3] (relative to parent PG10N, addition of C-terminal Lys) is given as “strongly decreases affinity to MC1R; also recorded: impaired binding”.
